Measured values: US20140163099A1, “ANTIMICROBIAL COMPOSITION” (TAKASAGO INTERNATIONAL CORPORATION, priority 2011, published 2014)

How the values were obtained:
Assay type in all cases: cell-based
[1] = tested on: Corynebacterium minutissimum (NBRC15361T); test: Growth inhibition activity (MIC, agar) against aerobic bacteria; conditions: strain NBRC15361T; Mueller Hinton Agar, 37 degrees C. overnight
Method: (§1) In the present invention, the growth inhibition activity, which is an indicator of the antimicrobial activity, is evaluated by determining the Minimum Inhibitory Concentration (MIC) with an agar or liquid medium.
(§2) In the test for the growth inhibition activity, the following strains were used as skin-related bacteria: • Staphylococcus epidermidis: Staphylococcus epidermidis (JCM2414T and ATCC 12228) • Staphylococcus aureus: Staphylococcus aureus (NBRC12732 and JCM2151) • Skin indigenous bacteria which introduce a superficial infection: Corynebacterium minutissimum (NBRC15361T) • Armpit odor-causing bacteria: Corynebacterium xerosis (JCM1324)
(§3) The test strains were cultured in the liquid medium which the Bioresource center recommends, and then the test strains were subcultured to a Mueller Hinton Broth (Difco) at 30 degrees C. The grown bacteria were diluted to 10^6 CFU/ml with saline to adjust the bacteria fluids for inoculation.
(§4) Furthermore, in order to examine the growth inhibition activities against the bacteria by the above cooling agents, the concentration of the cooling agents: (3S)-CA20, (3R)-CA20, CA1, CA5, CA15, CA55 or CA MGH was diluted with ethanol to the required level of concentration for the determining the Minimum Inhibitory Concentration to produce the sample liquids.
(§5) Next, 100 μL of each sample liquid was added to 10 mL of a Mueller Hinton Agar (Difco) agar medium solution in a soluble state, and each agar medium solution was poured into a petri dish and solidified to prepare test plates having several concentrations of the sample liquids (several concentrations of the above cooling agents). Subsequently, 5 μL of the above bacteria fluids for inoculation were stamped on the test plates, and then the test plates were cultured at 37 degrees C. overnight.
(§6) In this way, the growth inhibition activities by (3S)-CA20, (3R)-CA20, CA1, CA5, CA15, CA55, CA MGH were examined. The minimum concentration of the cooling agent in which the growth of bacteria could not be confirmed was considered as the MIC (Minimum Inhibitory Concentration).
(§7) The minimum concentration of the cooling agent in which the grown strain could not be confirmed was considered as the MIC (Minimum Inhibitory Concentration).

[2] = tested on: Corynebacterium xerosis (JCM1324); test: as above; conditions: strain JCM1324; Mueller Hinton Agar, 37 degrees C. overnight
Method: as §1, §2, §3, §4, §5, §6, §7

[3] = tested on: Staphylococcus aureus (JCM2151); test: as above; conditions: strain JCM2151; Mueller Hinton Agar, 37 degrees C. overnight
Method: as §1, §2, §3, §4, §5, §6, §7

[4] = tested on: Staphylococcus aureus (NBRC12732); test: as above; conditions: strain NBRC12732; Mueller Hinton Agar, 37 degrees C. overnight
Method: as §1, §2, §3, §4, §5, §6, §7

[5] = tested on: Staphylococcus epidermidis (JCM2414T); test: as above; conditions: strain JCM2414T; Mueller Hinton Agar, 37 degrees C. overnight
Method: as §1, §2, §3, §4, §5, §6, §7

[6] = tested on: Bacillus subtilis (NBRC3134); test: as above; conditions: strain NBRC3134; Mueller Hinton Agar, 37 degrees C. overnight
Method: as §1
(§8) Furthermore, the following bacteria were also used as other general aerobic bacteria: • Escherichia coli: Escherichia coli (NBRC3972) • Pseudomonas aeruginosa: Pseudomonas aeruginosa (NBRC13275) • Bacteria in intestines: Proteus vulgaris (NBRC3167) • Pneumobacillus: Klebsiella pneumoniae (NBRC13277) • Bacillus subtilis: Bacillus subtilis (NBRC3134)
as §3, §4, §5, §6, §7

[7] = tested on: Escherichia coli (NBRC3972); test: as above; conditions: strain NBRC3972; Mueller Hinton Agar, 37 degrees C. overnight
Method: as §1, §8, §3, §4, §5, §6, §7

[8] = tested on: Klebsiella pneumoniae (NBRC13277); test: as above; conditions: strain NBRC13277; Mueller Hinton Agar, 37 degrees C. overnight
Method: as §1, §8, §3, §4, §5, §6, §7

[9] = tested on: Proteus vulgaris (NBRC3167); test: as above; conditions: strain NBRC3167; Mueller Hinton Agar, 37 degrees C. overnight
Method: as §1, §8, §3, §4, §5, §6, §7

[10] = tested on: Pseudomonas aeruginosa (NBRC13275); test: as above; conditions: strain NBRC13275; Mueller Hinton Agar, 37 degrees C. overnight
Method: as §1, §8, §3, §4, §5, §6, §7

[11] = tested on: Actinomyces naeslundii (JCM8350); test: Growth inhibition activity (MIC, agar) against anaerobic bacteria; conditions: strain JCM8350; Trypticase Soy Broth agar, 37 degrees C. for 3 days
Method: as §1
(§9) In the test for growth inhibition activity, the following strains were used: • Acne bacteria: Propionibacterium acnes (JCM6473) and (ATCC6919) • Abscess bacteria: Bacteroides fragilis (GAI5560) • Cavity-causing bacteria: Streptococcus mutans (JCM5175), Actinomyces naeslundii (JCM8350) and Actinomyces viscosus (JCM8352) • Periodontal pathogen: Fusobacterium nucleatum (JCM6328), Porphyromonas gingivalis (JCM8525), Prevotella nigrescens (JCM6322)
(§10) The test strains were cultured in a GAM medium (Nissui Pharmaceutical Co., LTD), a Schaedler Broth (BBL) or a Trypticase Soy Broth (BBL) liquid medium, and then the grown bacteria were diluted in saline to prepare turbidity 0.5 McFarland of the bacteria fluids for inoculation. The bacteria were cultured at 37 degrees C. for 3 days under an anaerobic condition by using AnaeroPack® from MGC.
(§11) Furthermore, in order to examine the growth inhibition activities against the bacteria by the above cooling agent, the concentration of the cooling agents: (3S)-CA20, (3R)-CA20, CA1, CA5, CA15, CA55 or CA MGH was diluted with ethanol to the required level of concentrations for the determining the Minimum Inhibitory Concentration to produce the sample liquids.
(§12) Next, 100 μL of each sample liquid was added to 10 mL of a Trypticase Soy Broth agar medium solution in a soluble state, and each agar medium solution was poured into a petri dish and solidified, to prepare the test plates. Subsequently, 5 μL of above the bacteria fluids for inoculation were stamped on the test plates, and then the test plates were cultured at 37 degrees C. for 3 days.
(§13) The minimum concentration of the cooling agent in which the growth of bacteria could not be confirmed was considered as the MIC (Minimum Inhibitory Concentration).
as §13

[12] = tested on: Actinomyces viscosus (JCM8352); test: as above; conditions: strain JCM8352; Trypticase Soy Broth agar, 37 degrees C. for 3 days
Method: as §1, §9, §10, §11, §12, §13, §13

[13] = tested on: Bacteroides fragilis (GAI5560); test: as above; conditions: strain GAI5560; Trypticase Soy Broth agar, 37 degrees C. for 3 days
Method: as §1, §9, §10, §11, §12, §13, §13

[14] = tested on: Porphyromonas gingivalis (JCM8525); test: as above; conditions: strain JCM8525; Trypticase Soy Broth agar, 37 degrees C. for 3 days
Method: as §1, §9, §10, §11, §12, §13, §13

[15] = tested on: Prevotella nigrescens (JCM6322); test: as above; conditions: strain JCM6322; Trypticase Soy Broth agar, 37 degrees C. for 3 days
Method: as §1, §9, §10, §11, §12, §13, §13

[16] = tested on: Propionibacterium acnes (ATCC6919); test: as above; conditions: strain ATCC6919; Trypticase Soy Broth agar, 37 degrees C. for 3 days
Method: as §1, §9, §10, §11, §12, §13, §13

[17] = tested on: Propionibacterium acnes (JCM6473); test: as above; conditions: strain JCM6473; Trypticase Soy Broth agar, 37 degrees C. for 3 days
Method: as §1, §9, §10, §11, §12, §13, §13

[18] = tested on: Streptococcus mutans (JCM5175); test: as above; conditions: strain JCM5175; Trypticase Soy Broth agar, 37 degrees C. for 3 days
Method: as §1, §9, §10, §11, §12, §13, §13

Row | Molecule | MIC (Minimum Inhibitory Concentration) [1] | MIC (Minimum Inhibitory Concentration) [2] | MIC (Minimum Inhibitory Concentration) [3] | MIC (Minimum Inhibitory Concentration) [4] | MIC (Minimum Inhibitory Concentration) [5] | MIC (Minimum Inhibitory Concentration) [6] | MIC (Minimum Inhibitory Concentration) [7] | MIC (Minimum Inhibitory Concentration) [8] | MIC (Minimum Inhibitory Concentration) [9] | MIC (Minimum Inhibitory Concentration) [10] | MIC (Minimum Inhibitory Concentration) [11] | MIC (Minimum Inhibitory Concentration) [12] | MIC (Minimum Inhibitory Concentration) [13] | MIC (Minimum Inhibitory Concentration) [14] | MIC (Minimum Inhibitory Concentration) [15] | MIC (Minimum Inhibitory Concentration) [16] | MIC (Minimum Inhibitory Concentration) [17] | MIC (Minimum Inhibitory Concentration) [18]
1 | N-alkyl-p-menthane-3-carboxamide [WS-3, reference compound] | >1600 ppm | >1600 ppm | >1600 ppm | >1600 ppm | >1600 ppm | >1600 ppm | >1600 ppm | >1600 ppm | >1600 ppm | >1600 ppm | >1600 ppm | >1600 ppm | >1600 ppm | 200 ppm | >1600 ppm | >1600 ppm | >1600 ppm | >1600 ppm
2 | CC(O)CC(=O)OC1CC(C)CCC1C(C)C [(3R)-CA20, menthyl 3-hydroxybutanoate] | 200 ppm | 100 ppm | 100 ppm | 200 ppm | 200 ppm | 200 ppm | >1600 ppm | 200 ppm | >1600 ppm | >1600 ppm | 200 ppm | 100 ppm | 100 ppm | 100 ppm | 200 ppm | 400 ppm | 200 ppm | 200 ppm
